Columns and labels:
Format in all cases: cell-based
[1] = system: Staphylococcus aureus Mu3 cytoplasmic calcium; assay: Calcium influx monitored by Fluo-4-AM; settings: Fluo-4-AM fluorescence
Procedure: FIG. 12 is a line graph showing compound 8 can induce calcium influx into cytoplasm. The fluorescence of the Fluo-4-AM loaded in Staphylococcus aureus Mu3 was monitored for 10 minutes. The average of fluorescence in this period was assigned as F0. At t=10 minutes, different concentration of compound 8 was added to bacteria medium and then the fluorescence was further monitored for 40 minutes. Calcium ion transporter ionomycin was used as the positive control. The fluorescence Ft was normalized to initial fluorescence F0. Data represented the mean of biological triplicates.
Briefly, an overnight culture of MRSA Mu3 was sub-cultured 1:100 in fresh CAMH and regrown to exponential phase. The bacteria were washed twice and then re-suspended in PBS (OD595=0.5) containing 5 μM Fluo-4-AM. The bacteria were further incubated at 37° C. in dark for 2 hours before they were washed twice and resuspended into PBS containing 0.5 mM calcium chloride. 200 μL bacteria culture were then added into 96-well plate for each well. The plate was then pre-warmed and the fluorescence was monitored for 10 minutes for background measurement (excitation wavelength: 485 nm, emission wavelength: 535 nm). Fluorescence signal was recorded by Beckman Coulter DTX 880 Multimode Detector. Compounds were then added to 96-well plate and the fluorescence was further monitored for 5 minutes. […]

[2] = system: Staphylococcus aureus ATCC29213 Δatl, ΔSAOUHSC_02855 and ΔSAOUHSC_01895; assay: Bactericidal activity in autolysin deletion mutants; settings: 4×MIC (12.5 μM), 24 hours, compared to wild type
Procedure: FIG. 15 is the bar graph showing the reduction of bactericidal effect of compound 8 in autolysin deletion mutants of Staphylococcus aureus. Staphylococcus aureus ATCC29213 WT, Staphylococcus aureus ATCC 29213, Δatl, ΔSAOUHSC_02855 and ΔSAOUHSC_01895 was incubated with 4×MIC compounds 8 for 24 hours. 10 μL bacteria were serial diluted and spotted on Mueller Hinton Agar. Colonies were enumerated next day. Data represented the mean±S.D. of biological triplicates. Statistical analysis was performed by unpaired t test compared to wild type in 95% confidence interval (*p<0.05; **p<0.01).
Target DNA upstream 1 kb and downstream 1 kb were PCR amplified from Staphylococcus aureus genomic DNA. The two DNA inserts were ligated to fuse upstream and downstream DNA fragments by overlap PCR. The ligated PCR product was cloned to pKOR1 plasmid using Vazyme ClonExpress®II One Step Cloning Kit, and transformed into Escherichia. coli top 10, plated on LBA containing ampicillin (100 μg/mL), and incubated under 30° C. overnight. Colony PCR was performed with Sanger sequencing for selection of transformants. The plasmid DNA was extracted and subsequently transformed into Staphylococcus aureus RN4220 and ATCC 29213 in TSA containing chloramphenicol (10 μg/mL). […]

[3] = system: Staphylococcus aureus Mu3; assay: Antibacterial effect in combination with calcium channel blockers; settings: 12.5 μM compound 8 (4×MIC), dose dependent
Procedure: Exponential phase Staphylococcus aureus Mu3 was treated with compound 8 (4×MIC) or combination with calcium channel blocker. Data were representative of mean±S.D. of four individual experiments with error bars. Statistical analysis was performed by one-way ANOVA with Dunnett's post-test to calculate p-values adjusted for multiple comparisons with initial bacteria inoculum as control condition (*p<0.05; **p<0.01; ***p<0.001).
Data were representative of mean±S.D. of four individual experiments with error bars. Statistical analysis was performed by one-way ANOVA with Dunnett's post-test to calculate p-values adjusted for multiple comparisons with initial bacteria inoculum as control condition (*p<0.05; **p<0.01; ***p<0.001).

How did the “calcium influx into cytoplasm” value [1] turn out when `CC(C)C[C@H](ONC(=O)[C@@H](COCc1ccccc1)ONC(=O)c1cc(C(F)(F)F)cc(C(F)(F)F)c1)C(=O)Nc1ccccc1` [Compound 8] was run?
The value was “can induce calcium influx into cytoplasm in concentration dependent manner”.

What about the “bactericidal activity in autolysin deficient Staphylococcus aureus” value [2] of the same compound?
The value was “diminished bactericidal activity”.

What about the “antibacterial effect in combination with calcium channel blocker verapamil or benidipine” value [3] of the same compound?
Its value is “calcium channel blockers can antagonize the antibacterial effect”.

From patent US20240315992A1, “AMINOXY ACID-BASED ANTIBACTERIAL COMPOUNDS AND METHODS THEREOF” (The University of Hong Kong, priority 2023, published 2024)
